# Patent US20250100998A1, “PARP7 INHIBITORS” (Gilead Sciences, Inc., priority 2023, published 2025)
# pEC50: −log10 of the molar value.
# Test system: STAT1 (phosphorylated at Tyr701) in NCI-H1373 cells
# Assay: Phospho-STAT1 (Tyr701) LANCE Ultra TR-FRET detection assay
# Assay type: cell-based
# Settings: Homo sapiens, NCI-H1373, 48 h, induction of pSTAT1 in NCI-H1373 cells, 48 hours incubation; normalized to 10 uM positive control and DMSO; 4-parameter fit; read-out: NH1373 pSTAT1 EC50
# Protocol: Phospho-STAT1 (Tyr701 LANCE Ultra TR-FRET Detection Assay
# LANCE Ultra phospho-STAT1 (Tyr701) kits are designed for the detection of phosphorylated STAT1 in cell lysates using a simple, homogeneous LANCE Ultra sandwich assay (Cat. #TRF4028M). This assay is intended for assessing compound induction of endogenous levels of cellular STAT1 (phosphorylated at Tyr701) in NCI-H1373 cells. The NCI-H1373 cells are cultured in RPMI 1640 media containing 10% heat inactivated FBS, GlutaMAX, 1% Penicillin-Streptomycin. An Echo acoustic liquid handler is used to transfer 60 nanoliters of compound dilutions using the Echo Qualified, 384-well polypropylene microplate clear flat bottom source plates into a Greiner (#781080) cell culture microplate. NCI-H1373 cells are seeded into these compound-spotted culture plates at 30,000 cells/well in a 60 uL volume in growth media. The plates are incubated in a 5% CO2 humidified incubator at 37° C. for 48 hours. […] Briefly, […] of supplemented lysis buffer is added to each well and allowed to shake for 1 hour at 400 rpm. Next, 5 ul of remixed antibody solutions (vol/vol) prepared in detection buffer are added to each well and allowed to incubate at room temperature overnight. After spinning the plate down at 300 rpm for 1 min, the plate is read on an EnVision plate reader set up for Eu3+ Cryptate and fluorescence emission is measured at two different wavelengths (665 nm and 620 nm). The HTRF ratio is then calculated ([…]) for each well to determine the amount of pSTAT1 in the cell lysate, and the data is then normalized to 10 uM (S)-5-((1-(3-oxo-3-(4-(5-(trifluoromethyl)pyrimidin-2-yl)piperazin-1-yl)propoxy)propan-2-yl)amino)-4-(trifluoromethyl)pyridazin-3(2H)-one positive and DMSO negative controls. The values were then plotted as a function of compound concentration and a 4-parameter fit was applied to derive the EC50 values.
row,Compound,pEC50
1,"O=c1[nH]ncc(N[C@H]2CCO[C@@H](Cn3ccc4cc(-c5nc6ccccn6n5)c(F)c(F)c4c3=O)C2)c1C(F)(F)F [Example 65, 7,8-difluoro-2-[[(2R,4S)-4-[[6-oxo-5-(trifluoromethyl)-1H-pyridazin-4-yl]amino]tetrahydropyran-2-yl]methyl]-6-([1,2,4]triazolo[1,5-a]pyridin-2-yl)isoquinolin-1-one1-one]",7.69
2,"COc1nc(-c2cc3ccn(C[C@@H]4CCC[C@H](Nc5cn[nH]c(=O)c5C(F)(F)F)C4)c(=O)c3c(F)c2F)ncc1C#N [Example 22, 2-(7,8-difluoro-1-oxo-2-(((1R,3S)-3-((6-oxo-5-(trifluoromethyl)-1,6-dihydropyridazin-4-yl)amino)cyclohexyl)methyl)-1,2-dihydroisoquinolin-6-yl)-4-methoxypyrimidine-5-carbonitrile]",8.62
3,"O=c1[nH]ncc(N[C@H]2CCC[C@@H](Cn3ccc4cc(-c5nc6n(n5)COCCO6)c(F)cc4c3=O)C2)c1C(F)(F)F [Example 8, 6-(7,8-dihydro-5H-[1,2,4]triazolo[5,1-b][1,5,3]dioxazepin-2-yl)-7-fluoro-2-(((1R,3S)-3-((6-oxo-5-(trifluoromethyl)-1,6-dihydropyridazin-4-yl)amino)cyclohexyl)methyl)isoquinolin-1(2H)-one]",8.23
4,"CC(F)(F)c1cnc(-c2cc3ccn(C[C@@H]4CCC[C@H](Oc5cn[nH]c(=O)c5C(F)(F)F)C4)c(=O)c3c(F)c2F)nc1 [Example 56, 6-(5-(1,1-difluoroethyl)pyrimidin-2-yl)-7,8-difluoro-2-(((1R,3S)-3-((6-oxo-5-(trifluoromethyl)-1,6-dihydropyridazin-4-yl)oxy)cyclohexyl)methyl)isoquinolin-1(2H)-one]",9.04
5,"CC(C)(O)c1cnc(-c2cc3c(F)cn(C[C@@H]4CCC[C@H](Oc5cn[nH]c(=O)c5C(F)(F)F)C4)c(=O)c3c(F)c2F)nc1 [Example 48, 4,7,8-trifluoro-6-(5-(2-hydroxypropan-2-yl)pyrimidin-2-yl)-2-(((1R,3S)-3-((6-oxo-5-(trifluoromethyl)-1,6-dihydropyridazin-4-yl)oxy)cyclohexyl)methyl)isoquinolin-1(2H)-one]",8.99
6,"O=c1[nH]ncc(N[C@H]2CCC[C@@H](Cn3ccc4cc(-c5ncc6c(n5)NCCO6)c(F)cc4c3=O)C2)c1C(F)(F)F [Example 9, 6-(7,8-dihydro-6H-pyrimido[5,4-b][1,4]oxazin-2-yl)-7-fluoro-2-(((1R,3S)-3-((6-oxo-5-(trifluoromethyl)-1,6-dihydropyridazin-4-yl)amino)cyclohexyl)methyl)isoquinolin-1(2H)-one]",8.19
7,"[2H]C([2H])([2H])Oc1cnc(-c2cc3c(F)cn(C[C@@H]4CCC[C@H](Nc5cn[nH]c(=O)c5C(F)(F)F)C4)c(=O)c3c(F)c2F)nc1 [Example 46, 4,7,8-trifluoro-2-[[(1R,3S)-3-[[6-oxo-5-(trifluoromethyl)-1H-pyridazin-4-yl]amino]cyclohexyl]methyl]-6-[5-(trideuteriomethoxy)pyrimidin-2-yl]isoquinolin-1-one]",8.93
8,"O=c1[nH]ncc(N[C@H]2CCC[C@@H](Cn3cc(F)c4cc(-c5ncc(C(F)F)cn5)c(F)c(F)c4c3=O)C2)c1C(F)(F)F [Example 34, 6-(5-(difluoromethyl)pyrimidin-2-yl)-4,7,8-trifluoro-2-(((1R,3S)-3-((6-oxo-5-(trifluoromethyl)-1,6-dihydropyridazin-4-yl)amino)cyclohexyl)methyl)isoquinolin-1(2H)-one]",9.02
9,"O=c1[nH]ncc(N[C@H]2CCC[C@@H](Cn3ccc4cc(-c5ncc(OCC(F)F)cn5)c(F)cc4c3=O)C2)c1C(F)(F)F [Example 14, 6-(5-(2,2-difluoroethoxy)pyrimidin-2-yl)-7-fluoro-2-(((1R,3S)-3-((6-oxo-5-(trifluoromethyl)-1,6-dihydropyridazin-4-yl)amino)cyclohexyl)methyl)isoquinolin-1(2H)-one]",7.35
10,CC(F)(F)c1cnc(-c2cc3c(F)cn(C[C@@H]4CCC[C@H](Nc5cn[nH]c(=O)c5C(F)(F)F)C4)c(=O)c3c(F)c2F)nc1 [Example 43],8.58
11,"O=c1[nH]ncc(N[C@H]2CCC[C@@H](Cn3ccc4cc(-c5ccc(C(F)F)cn5)c(F)c(F)c4c3=O)C2)c1C(F)(F)F [Example 19, 6-(5-(difluoromethyl)pyridin-2-yl)-7,8-difluoro-2-(((1R,3S)-3-((6-oxo-5-(trifluoromethyl)-1,6-dihydropyridazin-4-yl)amino)cyclohexyl)methyl)isoquinolin-1(2H)-one]",8.32
12,"O=c1[nH]ncc(O[C@H]2CCC[C@@H](Cn3cc(F)c4cc(-c5ncc(OC(F)(F)F)cn5)c(F)c(F)c4c3=O)C2)c1C(F)(F)F [Example 49, 4,7,8-trifluoro-2-(((1R,3S)-3-((6-oxo-5-(trifluoromethyl)-1,6-dihydropyridazin-4-yl)oxy)cyclohexyl)methyl)-6-(5-(trifluoromethoxy)pyrimidin-2-yl)isoquinolin-1(2H)-one]",8.31
13,"O=c1[nH]ncc(N[C@H]2CCC[C@@H](Cn3ccc4cc(-c5nc6ccc(F)cn6n5)c(F)c(F)c4c3=O)C2)c1C(F)(F)F [Example 17, 7,8-difluoro-6-(6-fluoro-[1,2,4]triazolo[1,5-a]pyridin-2-yl)-2-(((1R,3S)-3-((6-oxo-5-(trifluoromethyl)-1,6-dihydropyridazin-4-yl)amino)cyclohexyl)methyl)isoquinolin-1(2H)-one]",8.94
14,"O=c1[nH]ncc(O[C@H]2CCC[C@@H](Cn3ccc4cc(-c5ncc(C(F)F)cn5)c(F)c(F)c4c3=O)C2)c1C(F)(F)F [Example 54, 6-(5-(difluoromethyl)pyrimidin-2-yl)-7,8-difluoro-2-(((1R,3S)-3-((6-oxo-5-(trifluoromethyl)-1,6-dihydropyridazin-4-yl)oxy)cyclohexyl)methyl)isoquinolin-1(2H)-one]",8.62
15,"O=c1[nH]ncc(N[C@H]2CCC[C@@H](Cn3cc(Cl)c4cc(-c5ncc(C(F)F)cn5)c(F)cc4c3=O)C2)c1C(F)(F)F [Example 60, 4-chloro-6-(5-(difluoromethyl)pyrimidin-2-yl)-7-fluoro-2-(((1R,3S)-3-((6-oxo-5-(trifluoromethyl)-1,6-dihydropyridazin-4-yl)amino)cyclohexyl)methyl)isoquinolin-1(2H)-one]",8.21
16,"O=c1[nH]ncc(N[C@H]2CCC[C@@H](Cn3ccc4cc(-c5ncc(F)cn5)c(F)cc4c3=O)C2)c1C(F)(F)F [Example 12, 7-fluoro-6-(5-fluoropyrimidin-2-yl)-2-(((1R,3S)-3-((6-oxo-5-(trifluoromethyl)-1,6-dihydropyridazin-4-yl)amino)cyclohexyl)methyl)isoquinolin-1(2H)-one]",7.64
17,"COc1cnc(-c2cc3c(F)cn(C[C@@H]4CCC[C@H](Oc5cn[nH]c(=O)c5C(F)(F)F)C4)c(=O)c3c(F)c2F)nc1 [Example 53, 4,7,8-trifluoro-6-(5-methoxypyrimidin-2-yl)-2-(((1R,3S)-3-((6-oxo-5-(trifluoromethyl)-1,6-dihydropyridazin-4-yl)oxy)cyclohexyl)methyl)isoquinolin-1(2H)-one]",8.68
18,"[2H]C([2H])([2H])Oc1cnc(-c2cc3c(F)cn(C[C@@H]4CCC[C@H](Oc5cn[nH]c(=O)c5C(F)(F)F)C4)c(=O)c3c(F)c2F)nc1 [Example 51, 4,7,8-trifluoro-6-(5-(methoxy-d3)pyrimidin-2-yl)-2-(((1R,3S)-3-((6-oxo-5-(trifluoromethyl)-1,6-dihydropyridazin-4-yl)oxy)cyclohexyl)methyl)isoquinolin-1(2H)-one]",8.91
19,"CC(C)(O)COc1cnc(-c2cc3ccn(C[C@@H]4CCC[C@H](Nc5cn[nH]c(=O)c5C(F)(F)F)C4)c(=O)c3c(F)c2F)nc1 [Example 16, 7,8-difluoro-6-(5-(2-hydroxy-2-methylpropoxy)pyrimidin-2-yl)-2-(((1R,3S)-3-((6-oxo-5-(trifluoromethyl)-1,6-dihydropyridazin-4-yl)amino)cyclohexyl)methyl)isoquinolin-1(2H)-one]",7.51
20,"O=c1[nH]ncc(N[C@@H]2C[C@H](Cn3ccc4cc(-c5ncc(C(F)(F)F)cn5)c(F)cc4c3=O)CC(F)(F)C2)c1C(F)(F)F (single isomer, unassigned) [Example 66]",7.53
21,"CC(C)(O)c1cnc(-c2cc3c(F)cn(C[C@@H]4CCC[C@H](Nc5cn[nH]c(=O)c5C(F)(F)F)C4)c(=O)c3c(F)c2F)nc1 [Example 37, 4,7,8-trifluoro-6-(5-(2-hydroxypropan-2-yl)pyrimidin-2-yl)-2-(((1R,3S)-3-((6-oxo-5-(trifluoromethyl)-1,6-dihydropyridazin-4-yl)amino)cyclohexyl)methyl)isoquinolin-1(2H)-one]",8.60
